The target of one experiment is T1, ERα (Homo sapiens, UniProt P03372).
T1 construct: GST (N); made in house; host or cells: E. coli BL21(DE3)pLysS
T1 sequence (P03372 311-547 limits assumed): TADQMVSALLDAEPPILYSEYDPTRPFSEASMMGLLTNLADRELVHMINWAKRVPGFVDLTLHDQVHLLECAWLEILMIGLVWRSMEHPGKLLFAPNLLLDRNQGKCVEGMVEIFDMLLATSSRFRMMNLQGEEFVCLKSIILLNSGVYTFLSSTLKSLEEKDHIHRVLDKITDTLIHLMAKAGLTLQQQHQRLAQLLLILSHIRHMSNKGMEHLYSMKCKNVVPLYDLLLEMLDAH
Kind of experiment: Estrogen receptor competition binding assay (SPA, [3H]Estradiol), ERα. Particulars: for Ki: competition binding assay, GST-hERα ligand binding domain, 1 nM [3H]Estradiol, (n) = number of determinations, read-out: Avg. ER α pKi (n) (converted). On the procedure:
(§1) The ligand binding domain of both ERα and ERβ were subcloned into pGEX-2T vector which had been modified to contain KpnI and BamHI restriction sites in the multiple cloning region. GST-hERα and GST-hERβ proteins were made by transforming BL21(DE3)pLYS S competent cells with the appropriate expression plasmid. […] The cells were collected by centrifugation and resuspended in lysis buffer (50 mM Tris pH 7.9; 250 mM KCl; 1% Triton X-100; 10 mM DTT; 1 mM PMSF). The lysate was then placed on dry ice until completely frozen. […] The supernatant was retained and glycerol was added to a final concentration of 10%. The protein content of the supernatant was quantitated using the BioRad Protein Assay Reagent The protein was then stored at −80° C. until used in the binding assay.
(§2) Polylysine coated Yttrium Silicate SPA beads (Amersham #RPNQ 0010) are resuspended in assay buffer [10 mM potassium phosphate buffer pH 7.0 containing 2 mM EDTA, 50 mM NaCl, 1 mM DTT, 2 mM CHAPS, 10% glycerol] to a concentration of 1 g/60 ml. […] [2, 4, 6, 7, 16, 17-3H(N)]-Estradiol is added as a 30 ul aliquot to give a final assay concentration of 1 nM. […] The plates are shaken vigorously for two hours then counted on a Packard TopCount using the protocol for counting tritium yttrium silicate SPA beads. Data analysis was done by standard methods. % Bound was calculated for each concentration of each test compound using the equation % Bound=100*((Test−NS)/(T−NS)). % Bound was plotted vs concentration and curve fitting was accomplished using non-linear regression.

A further experiment concerns the target T2, ERβ (Homo sapiens, UniProt Q92731).
T2 construct: GST (N); made in house; host or cells: E. coli BL21(DE3)pLysS
Kind of experiment: Estrogen receptor competition binding assay (SPA, [3H]Estradiol), ERβ. On the procedure: as §1, §2

Each structure is given as a SMILES string. pKi: −log10 of the molar value. Where two headings read alike, the source gives them in different places.

T2 sequence (Q92731 264-498 limits assumed): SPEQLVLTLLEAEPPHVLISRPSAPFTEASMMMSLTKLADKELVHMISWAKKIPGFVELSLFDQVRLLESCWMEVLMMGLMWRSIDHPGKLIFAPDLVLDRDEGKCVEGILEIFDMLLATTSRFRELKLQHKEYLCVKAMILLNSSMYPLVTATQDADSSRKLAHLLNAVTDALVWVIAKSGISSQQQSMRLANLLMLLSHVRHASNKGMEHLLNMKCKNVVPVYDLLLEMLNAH

In general, pKi refers to the Ki on a negative log10 scale, so that one unit is a factor of ten. High values mean a small Ki, low ones a large Ki. Regarding `CN(CCCc1ccc(Cl)cc1)c1nc(NCCc2ccc(O)cc2)nc(N2CCNCC2)n1` [Example 1, 4-(2-{[4-[[3-(4-chlorophenyl)propyl](methyl)amino]-6-(1-piperazinyl)-1,3,5-triazin-2-yl]amino}ethyl)phenol], the Ki on ERα was 339 nM. Besides, the pKi at ERβ is 7.98. On the same counts, the results for `COc1cccc(C(=O)N2CCN(c3nc(NCCc4ccc(O)cc4)nc(N(C)CCCc4ccc(Cl)cc4)n3)CC2)c1` [Example 3, 4-[2-({4-[[3-(4-chlorophenyl)propyl](methyl)amino]-6-[4-(3-methoxybenzoyl)-1-piperazinyl]-1,3,5-triazin-2-yl}amino)ethyl]phenol] are 1780 nM and 7.02. On the same counts, the results for `CN(CCCc1ccc(Cl)cc1)c1nc(NCCc2ccc(O)cc2)nc(N2CCN(C(=O)c3ccccn3)CC2)n1` [Example 4, 4-[2-({4-[[3-(4-chlorophenyl)propyl](methyl)amino]-6-[4-(2-pyridinylcarbonyl)-1-piperazinyl]-1,3,5-triazin-2-yl}amino)ethyl]phenol] are 4370 nM and 6.81. For `CN(CCCc1ccc(Cl)cc1)c1nc(NCCc2ccc(O)cc2)nc(N2CCN(Cc3ccccn3)CC2)n1` [Example 5, 4-[2-({4-[[3-(4-chlorophenyl)propyl](methyl)amino]-6-[4-(2-pyridinylmethyl)-1-piperazinyl]-1,3,5-triazin-2-yl}amino)ethyl]phenol], the pKi at ERβ was 7.42.

Consider `CN(CCCc1ccc(Cl)cc1)c1nc(NCCc2ccc(O)cc2)nc(N2CCN(Cc3cccnc3)CC2)n1` [Example 6, 4-[2-({4-[[3-(4-chlorophenyl)propyl](methyl)amino]-6-[4-(3-pyridinylmethyl)-1-piperazinyl]-1,3,5-triazin-2-yl}amino)ethyl]phenol], for which the negative logarithm of the Ki (pKi) at ERβ is 7.50. Same read-out and setting: to `Cc1nc(CN2CCN(c3nc(NCCc4ccc(O)cc4)nc(N(C)CCCc4ccc(Cl)cc4)n3)CC2)cs1` [Example 7, 4-{2-[(4-[[3-(4-chlorophenyl)propyl](methyl)amino]-6-{4-[(2-methyl-1,3-thiazol-4-yl)methyl]-1-piperazinyl}-1,3,5-triazin-2-yl)amino]ethyl}phenol] belongs 7.73. `CN(CCCc1ccc(Cl)cc1)c1nc(NCCc2ccc(O)cc2)nc(N2CCN(/C(=C/C(=O)c3ccccc3)C(F)(F)F)CC2)n1` [Example 8, (2E)-3-[4-(4-[[3-(4-chlorophenyl)propyl](methyl)amino]-6-{[2-(4-hydroxyphenyl)ethyl]amino}-1,3,5-triazin-2-yl)-1-piperazinyl]-4,4,4-trifluoro-1-phenyl-2-buten-1-one]: on ERα, the Ki was 1580 nM. The molecule also had a pKi at ERβ of 7.08.

As to `CN(C)C(=O)CCN1CCN(c2nc(NCCc3ccc(O)cc3)nc(N(C)CCCc3ccc(Cl)cc3)n2)CC1` [Example 9, 3-[4-(4-[[3-(4-chlorophenyl)propyl](methyl)amino]-6-{[2-(4-hydroxyphenyl)ethyl]amino}-1,3,5-triazin-2-yl)-1-piperazinyl]-N,N-dimethylpropanamide], on ERα, the Ki was 355 nM. The pKi at ERβ was 7.70. For `CN1CCN(c2nc(NC3CCc4cc(O)ccc4C3)nc(SCCCc3ccccc3)n2)CC1` (stereo not shown) [Example 10, 6-({4-(4-methyl-1-piperazinyl)-6-[(3-phenylpropyl)sulfanyl]-1,3,5-triazin-2-yl}amino)-5,6,7,8-tetrahydro-2-naphthalenol], in that order: 398 nM and 7.20. Turning to `C=CCN1CCN(c2nc(NCCc3ccc(O)cc3)nc(N(C)CCCc3ccc(Cl)cc3)n2)CC1` [Example 12, 4-[2-({4-(4-ally-1-piperazinyl)-6-[[3-(4-chlorophenyl)propy](methyl)amino]-1,3,5-triazin-2-yl}amino)ethyl]phenol], the pKi on ERβ is 7.64. Regarding `CN(CCCc1ccc(Cl)cc1)c1nc(NCCc2ccc(O)cc2)nc(N2CCN(C/C=C/c3ccccc3)CC2)n1` [Example 13, 4-{2-[(4-[[3-(4-chlorophenyl)propyl](methyl)amino]-6-{4-[(2E)-3-phenyl-2-propenyl]-1-piperazinyl}-1,3,5-triazin-2-yl)amino]ethyl]phenol], the Ki on ERα is 141 nM. The molecule further gave a pKi on ERβ of 8.00. On the same counts, the results for `CN(CCCc1ccc(Cl)cc1)c1nc(N(C)CCc2ccc(O)cc2)nc(N2CCNCC2)n1` [Example 14, 4-{2-[[4-[[3-(4-chlorophenyl)propyl](methyl)amino]-6-(1-piperazinyl)-1,3,5-triazin-2-yl](methyl)amino]ethy}phenol] are 562 nM and 7.58. On the same counts, the results for `CN1CCN(c2nc(N(C)CCCc3ccc(Cl)cc3)nc(N(C)CCc3ccc(O)cc3)n2)CC1` [Example 15, 4-(2-{[4-[[3-(4-chlorophenyl)propyl](methyl)amino]-6-(4-methyl-1-piperazinyl)-1,3,5-triazin-2-yl](methyl)amino}ethyl)phenol] are 380 nM and 7.88. For `C[C@@H]1CN(c2nc(N(C)CCCc3ccc(Cl)cc3)nc(N(C)CCc3ccc(O)cc3)n2)C[C@H](C)N1` [Example 16, 4-(2-{[4-[[3-(4-chlorophenyl)propyl](methyl)amino]-6-(3,5-cis-dimethyl-1-piperazinyl)-1,3,5-triazin-2-yl](methyl)amino}ethyl)phenol], in that order: 229 nM and 7.96. As to `CN(CCCc1ccc(Cl)cc1)c1nc(N(C)CCc2ccc(O)cc2)nc(N2CCN(CCO)CC2)n1` [Example 17], the Ki on ERα is 603 nM. Moreover, on ERβ, the pKi was 7.54. On the same counts, the results for `CN(CCCc1ccc(F)cc1)c1nc(NCCc2ccc(O)cc2)nc(N2CCNCC2)n1` [Example 18, 4-(2-{[4-[[3-(4-fluorophenyl)propyl](methyl)amino]-6-(1-piperazinyl)-1,3,5-triazin-2-yl]amino}ethyl)phenol] are 372 nM and 7.80. On the same counts, the results for `CN(CCCc1ccc(F)cc1)c1nc(N(C)CCc2ccc(O)cc2)nc(N2CCNCC2)n1` [Example 19, 4-(2-{[4-[[3-(4-fluorophenyl)propyl](methyl)amino]-6-(1-piperazinyl)-1,3,5-triazin-2-yl]methylamino}ethyl)phenol] are 550 nM and 7.61. As for `CN1CCN(c2nc(N(C)CCCc3ccc(F)cc3)nc(N(C)CCc3ccc(O)cc3)n2)CC1` [Example 20, 4-(2-{[4-[[3-(4-fluorophenyl)propyl](methyl)amino]-6-(4-methyl-1-piperazinyl)-1,3,5-triazin-2-yl]methylamino}ethyl)phenol], on ERα, the Ki was 562 nM. This molecule also gave a negative-log Ki (pKi) at ERβ of 7.63. On to `CN(CCCc1ccc(F)c(F)c1)c1nc(N(C)CCc2ccc(O)cc2)nc(N2CCNCC2)n1` [Example 21, 4-(2-{[4-[[3-(3,4-difluorophenyl)propyl](methyl)amino]-6-(1-piperazinyl)-1,3,5-triazin-2-yl]methylamino}ethyl)phenol], for which the Ki on ERα is 214 nM. In addition, on ERβ, the pKi was 7.63. On the same counts, the results for `CN(CCCc1ccc(C(F)(F)F)cc1)c1nc(N(C)CCc2ccc(O)cc2)nc(N2CCNCC2)n1` [Example 22, 4-(2-{methyl[4-(methyl{3-[4-(trifluoromethyl)phenyl]propyl}amino)-6-(1-piperazinyl)-1,3,5-triazin-2-yl]amino}ethyl)phenol] are 550 nM and 7.07. On the same counts, the results for `CN(CCCc1ccc(Cl)cc1Cl)c1nc(N(C)CCc2ccc(O)cc2)nc(N2CCNCC2)n1` [Example 23, 4-(2-{[4-[[3-(2,4-dichlorophenyl)propyl](methyl)amino]-6-(1-piperazinyl)-1,3,5-triazin-2-yl]methylamino}ethyl)phenol] are 501 nM and 7.48. Regarding `CN(CCCc1ccc(Cl)cc1)c1nc(NCCc2ccc(O)cc2)nc(N2CCN(CCO)CC2)n1` [Example 24, 4-[2-({4-[[3-(4-chlorophenyl)propyl](methyl)amino]-6-[4-(2-hydroxyethyl)-1-piperazinyl]-1,3,5-triazin-2-yl}amino)ethyl]phenol], the pKi on ERα is 6.47; on ERβ, 7.83.

For the origin of these results see patent publication US6943162B2, “Piperazinyltriazines as estrogen receptor modulators” (SmithKline Beecham Corporation, priority 2001, dated 2005).
